This test concerns the target human vanin-1 (Homo sapiens (Human), UniProt O95497). In words: Human Vanin-1 Enzyme Assay 1. The format is biochemical. The conditions noted are these: 25 pM human vanin-1, 50 uM pantetheine 7-amino-4-trifluoromethylcoumarin substrate. The method, then:
Human Vanin-1Enzyme Assay 1.
The in vitro assay measures enzymatic cleavage of the fluorescently-labeled vanin substrate, pantetheine 7-amino-4-trifluoromethylcoumarin, by human vanin-1.
The vanin-1 protein was prepared in-house from a construct expressing the extracellular domain of human vanin-1 (GenBank ID NM_004666) preceded N-terminally by the honey bee melittin signal peptide, a GSG linker sequence, a His6× tag and a FLAG tag. The secreted, soluble enzyme was purified from the conditioned medium from a CHO cell line stably expressing the resulting protein. Enzyme purification was performed through sequential Ni NTA and size-exclusion chromatography steps.
Intermediate concentrations were prepared by diluting in DMSO in a four-fold series for a total of 11 data points.
To begin the assay 100 nL was transferred from the compound plate to the assay plate. Next, 15 μL of the vanin-1 working solution were transferred to the assay plate. The inhibitor and enzyme were incubated at room temperature for 30 minutes. The enzyme reaction was then initiated by the addition of 5 μL of 200 μM pantetheine 7-amino-4-trifluoromethylcoumarin prepared in assay buffer. […] The final concentration of DMSO was 0.5%.
Chain of human vanin-1 (O95497 22-491): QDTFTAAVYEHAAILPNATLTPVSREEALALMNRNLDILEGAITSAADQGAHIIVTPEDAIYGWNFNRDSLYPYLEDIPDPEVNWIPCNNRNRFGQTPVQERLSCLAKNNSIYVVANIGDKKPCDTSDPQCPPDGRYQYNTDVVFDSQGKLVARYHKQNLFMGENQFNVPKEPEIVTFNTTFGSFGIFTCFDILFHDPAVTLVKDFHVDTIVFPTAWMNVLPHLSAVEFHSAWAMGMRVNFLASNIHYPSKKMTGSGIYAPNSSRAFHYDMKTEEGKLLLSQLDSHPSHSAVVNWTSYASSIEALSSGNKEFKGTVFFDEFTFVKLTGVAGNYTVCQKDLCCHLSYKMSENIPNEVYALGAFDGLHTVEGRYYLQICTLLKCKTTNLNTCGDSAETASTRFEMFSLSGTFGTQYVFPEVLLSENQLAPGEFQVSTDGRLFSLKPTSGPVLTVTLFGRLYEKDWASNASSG
What is called IC50 is the midpoint of a concentration-inhibition curve. Low readings indicate greater potency in that assay, high ones weaker potency in that assay. As for `COCC1CCCN(C(=O)c2cnc(NC3(c4cncnc4)CC3)nc2)C1` (centres unmarked) [Example 71], 5.41 nM corresponded to half-maximal inhibition (IC50).

On to `CC(C)[C@H]1C[C@H](O)CN(C(=O)c2cnc(NC3(c4cncnc4)CC3)nc2)C1` [Example 72], for which the IC50 worked out at 148 nM.

As to `O=C(c1cnc(NC2(c3cncnc3)CC2)nc1)N1CCCC1C(F)(F)F` (centres unmarked) [Example 73], the concentration for half-maximal inhibition (IC50) is 829 nM.

Take `O=C(c1cnc(NC2(c3cncnc3)CC2)nc1)N1CCCC(C(F)(F)F)C1` (centres unmarked) [Example 74]: the IC50 was determined as 3.62 nM.

In turn, `CN1CC2(COCCN(C(=O)c3cnc(NC4(c5cncnc5)CC4)nc3)C2)OC1=O` (centres unmarked) [Example 75] returned a half-maximal inhibitory concentration (IC50) of 1080 nM.

As to `C[C@@H]1CCCN1C(=O)c1cnc(NC2(c3cncnc3)CC2)nc1` [Example 76], the IC50 was 122 nM.

Molecule `O=C(c1cnc(NC2(c3cncnc3)CC2)nc1)N1CCC[C@@]2(CCCC[C@@H]2O)C1` [Example 77] showed a half-inhibitory concentration (IC50) of 31.3 nM.

Consider `CC(C)(O)C1CCN(C(=O)c2cnc(NC3(c4cncnc4)CC3)nc2)CC1` [Example 78], for which the half-inhibitory concentration (IC50) turned out to be 1600 nM.

Molecule `CO[C@@H]1CCN(C(=O)c2cnc(NC3(c4cncnc4)CC3)nc2)C1` [Example 79] showed a half-inhibitory concentration (IC50) of 21.3 nM.

Regarding `O=C(c1cnc(NC2(c3cncnc3)CC2)nc1)N1CCCC[C@H]1CCO` [Example 80], the IC50 turned out to be 545 nM.

For the molecule `O=C(c1cnc(NC2(c3cncnc3)CC2)nc1)N1CCC(C(F)F)CC1` [Example 81], the IC50 came to 102 nM.

`O=C(c1cnc(NC2(c3cncnc3)CC2)nc1)N1CCCC[C@@H]1CO` [Example 82] registered an IC50 of 147 nM.

Regarding `CC1(CO)CCN(C(=O)c2cnc(NC3(c4cncnc4)CC3)nc2)CC1` [Example 83], half-maximal inhibition (IC50) was put at 55.1 nM.

With `CO[C@@H]1CN(C(=O)c2cnc(NC3(c4cncnc4)CC3)nc2)C[C@H]1F` [Example 84], half-maximal inhibition (IC50) required 75.4 nM.

Molecule `COCC1COCCN(C(=O)c2cnc(NC3(c4cncnc4)CC3)nc2)C1` (centres unmarked) [Example 85] gave an IC50 of 167 nM.

Molecule `C[C@H]1C[C@@H](O)CN(C(=O)c2cnc(NC3(c4cncnc4)CC3)nc2)C1` [Example 86] displayed a concentration for half-maximal inhibition (IC50) of 24.2 nM.

For the molecule `O=C(c1cnc(NC2(c3cncnc3)CC2)nc1)N1C[C@H](O)C[C@H](C2CC2)C1` [Example 88], the IC50 was 28.7 nM.

`O=C(c1cnc(NC2(c3cncnc3)CC2)nc1)N1C[C@H](O)C[C@H](C(F)(F)F)C1` [Example 89] came in with a half-inhibitory concentration (IC50) of 35 nM.

Consider `O=C(c1cnc(NC2(c3cncnc3)CC2)nc1)N1CCC(O)(C(F)(F)F)CC1` [Example 90], for which the IC50 came to 348 nM.

The molecule `COC1CCOC2(CCN(C(=O)c3cnc(NC4(c5cncnc5)CC4)nc3)CC2)C1` (centres unmarked) [Example 91] displayed a half-inhibitory concentration (IC50) of 316 nM.

Molecule `CCOCC1(F)CCN(C(=O)c2cnc(NC3(c4cncnc4)CC3)nc2)CC1` [Example 92] returned an IC50 of 50.9 nM.

As to `O=C(c1cnc(NC2(c3cncnc3)CC2)nc1)N1CCCC(F)C1` (centres unmarked) [Example 93], 40.5 nM corresponded to half-maximal inhibition (IC50).

Molecule `O=C(c1cnc(NC2(c3cncnc3)CC2)nc1)N1CCC(O)C(C(F)(F)F)C1` (centres unmarked) [Example 94] gave a 50% inhibitory concentration (IC50) of 20.4 nM.

Consider `CCC1(CO)CCN(C(=O)c2cnc(NC3(c4cncnc4)CC3)nc2)CC1` [Example 95], for which it took 30.1 nM to reach half-maximal inhibition (IC50).

As to `O=C(c1cnc(NC2(c3cncnc3)CC2)nc1)N1C2CCC1COC2` [Example 97], the IC50 is 345 nM.

`O=C(c1cnc(NC2(c3cncnc3)CC2)nc1)N1CCC(F)(F)CC1` [Example 98] showed a concentration for half-maximal inhibition (IC50) of 5.66 nM.

Molecule `C[C@@H]1CN(C(=O)c2cnc(NC3(c4cncnc4)CC3)nc2)CCO1` [Example 99] yielded a concentration for half-maximal inhibition (IC50) of 591 nM.

Molecule `O=C(c1cnc(NC2(c3cncnc3)CC2)nc1)N1CCCC2(CCCC[C@H]2O)C1` (some centres unmarked) [Example 100] displayed an IC50 of 135 nM.

`O=C(c1cnc(NC2(c3cncnc3)CC2)nc1)N1CCC(C2(O)CCCC2)CC1` [Example 101] had a 50% inhibitory concentration (IC50) of 1360 nM.

Regarding `O=C(c1cnc(NC2(c3cncnc3)CC2)nc1)N1CC2(CC(O)C2)C1` [Example 102], the IC50 was 40.8 nM.

Consider `C[C@@H]1COCCN1C(=O)c1cnc(NC2(c3cncnc3)CC2)nc1` [Example 103], for which the concentration for half-maximal inhibition (IC50) is 590 nM.

`CCOC1CCCN(C(=O)c2cnc(NC3(c4cncnc4)CC3)nc2)C1` (centres unmarked) [Example 104] showed an IC50 of 2.45 nM.

The molecule `O=C(c1cnc(NC2(c3cncnc3)CC2)nc1)N1CC2CCC1CO2` (centres unmarked) [Example 105] returned an IC50 of 36 nM.

`O=C(c1cnc(NC2(c3cncnc3)CC2)nc1)N1CCCC(CO)C1` (centres unmarked) [Example 106] gave an IC50 of 30.8 nM.

Regarding `C[C@H]1CN(C(=O)c2cnc(NC3(c4cncnc4)CC3)nc2)CCO1` [Example 107], half-maximal inhibition (IC50) required 38.6 nM.

In turn, `O=C(c1cnc(NC2(c3cncnc3)CC2)nc1)N1CCOCC1` [Example 109] showed a half-maximal inhibitory concentration (IC50) of 249 nM.

Consider `O=C(c1cnc(NCc2cnccn2)nc1)N1CCN2C[C@@H](F)C[C@H]2C1` [Example 110], for which 171 nM corresponded to half-maximal inhibition (IC50).

`O=C(c1cnc(NCc2cnccn2)nc1)N1CCN2C[C@H](O)C[C@H]2C1` [Example 111] had an IC50 of 3590 nM.

Take `CN1C[C@@H]2C[C@H]1CN2C(=O)c1cnc(NCc2cnccn2)nc1` [Example 112]: the IC50 was more than 18900 nM.

As to `C[C@H](Nc1ncc(C(=O)N2C[C@H](O)[C@@H](N3CCOCC3)C2)cn1)c1cnccn1` [Example 113], inhibition was half-maximal at 508 nM (IC50).

Regarding `C[C@H](Nc1ncc(C(=O)N2CCN3CCC[C@@H]3C2)cn1)c1cnccn1` [Example 114], it took 20.9 nM to reach half-maximal inhibition (IC50).

The molecule `O=C(c1cnc(NCc2cnccn2)nc1)N1C[C@H](O)[C@@H](N2CCOCC2)C1` [Example 115] returned a half-inhibitory concentration (IC50) of 16000 nM.

With `O=C(c1cnc(NCc2cnccn2)nc1)N1CCN2CC(F)(F)C[C@H]2C1` [Example 116], the concentration for half-maximal inhibition (IC50) is 113 nM.

Regarding `CCN1CCC2(CCN(C(=O)c3cnc(N[C@@H](C)c4cnccn4)nc3)C2)C1` (some centres unmarked) [Example 117], the midpoint of inhibition, the IC50, lay at 5.11 nM.

`C[C@H](Nc1ncc(C(=O)N2CCN3CC(F)(F)C[C@H]3C2)cn1)c1cnccn1` [Example 118] had an IC50 of 4.64 nM.

In turn, `CN1CC2(CCN(C(=O)c3cnc(NCc4cnccn4)nc3)C2)C1` [Example 119] had an IC50 of 1370 nM.

Consider `C[C@H](Nc1ncc(C(=O)N2CC[C@@H](N3CCOCC3)C2)cn1)c1cnccn1` [Example 120], for which the IC50 came out at 84.1 nM.

In turn, `C[C@H](Nc1ncc(C(=O)N2CCN3C[C@@H](F)C[C@H]3C2)cn1)c1cnccn1` [Example 121] showed an IC50 of 3.95 nM.

Molecule `C[C@H](Nc1ncc(C(=O)N2CCC3(CN(C)C3)C2)cn1)c1cnccn1` [Example 122] gave an IC50 of 43.9 nM.

In the case of `CN1CC2CN(C(=O)c3cnc(NCc4cnccn4)nc3)CC2C1` (centres unmarked) [Example 123], 11400 nM corresponded to half-maximal inhibition (IC50).

Turning to `O=C(c1cnc(NCc2cnccn2)nc1)N1CC[C@@H](N2CCOCC2)C1` [Example 124], the IC50 worked out at 4620 nM.

`C[C@H](Nc1ncc(C(=O)N2CCN3CCC[C@H]3C2)cn1)c1cnccn1` [Example 125]: half-maximal inhibition (IC50) was put at 3.04 nM.

In turn, `C[C@H](Nc1ncc(C(=O)N2CC3CN(C)CC3C2)cn1)c1cnccn1` (some centres unmarked) [Example 127] gave an IC50 of 587 nM.

The molecule `O=C(c1cnc(NCc2cnccn2)nc1)N1CCN2CCC[C@@H]2C1` [Example 128] showed a half-maximal inhibitory concentration (IC50) of 384 nM.

`O=C(c1cnc(NCc2cnccn2)nc1)N1CCN2CCC[C@H]2C1` [Example 129]: the half-inhibitory concentration (IC50) stood at 65.9 nM.

As for `O=C(c1cnc(NC2(c3cnccn3)COC2)nc1)N1CCC2(CCOCC2)C1` [Example 132], the 50% inhibitory concentration (IC50) is 0.349 nM.

(Values after patent US10906888B2, “Pyrimidine carboxamides as inhibitors of Vanin-1 enzyme” (Pfizer Inc., priority 2016, dated 2021).)
